We go through 18 compounds from patent US12208110B2 (priority 2020, dated 2025).

Common to all, as to type: cell-based
Series [1] has as its system RSV-Fluc (Recombinant Respiratory Syncytial virus strain A2 containing the firefly luciferase reporter). The experiment in a line: microbe, parasite or virus in culture. The note with it: human respiratory syncytial virus, NHBE, 72 h, read-out: RSV-Fluc EC50 (nM, NHBE).
The subject of another series is SARS-CoV-2. The experiment in a line: microbe, parasite or virus in culture. The settings on record: Severe acute respiratory syndrome coronavirus 2, 48 h.
A short description of series [2]: MT4 cytotoxicity analysis (CellTiter-Glo). The settings on record: human. An outline of the steps: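 MT-4 cells were exposed in quadruplicate to 3-fold serial compound dilutions (DMSO stocks 2.5 uM to 10 mM) for five days at 37 °C. Viability was read by CellTiter-Glo luminescence.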
For orientation: ATP-based viability assays read luminescence as a measure of living cells.

SMILES strings stand for the structures. Where two headings read alike, the source gives them in different places.

Regarding `CCCCCCCCCCCCCCCCCCOC[C@H](COc1ccc(C#N)cn1)OP(=O)(O)OC[C@H]1O[C@@](C#N)(c2ccc3c(N)ncnn23)[C@H](O)[C@@H]1O` [Example 41, ((2R,3S,4R,5R)-5-(4-aminopyrrolo[2,1-f][1,2,4]triazin-7-yl)-5-cyano-3,4-dihydroxytetrahydrofuran-2-yl)methyl ((R)-1-((5-cyanopyridin-2-yl)oxy)-3-(octadecyloxy)propan-2-yl) hydrogen phosphate], the EC50 in series [1] was 63 nM; with SARS-CoV-2, 130 nM. Besides, in series [2] (MT4 CC50 (nM)), the midpoint of cytotoxicity, the CC50 at 5 days, lay at 1900 nM.

Take `CCCCCCCCCCCCCCCCCCOC[C@H](COP(=O)(O)OC[C@H]1O[C@@](C#N)(c2ccc3c(N)ncnn23)[C@H](O)[C@@H]1O)Nc1ccc(C#N)cn1` [Example 42, ((2R,3S,4R,5R)-5-(4-aminopyrrolo[2,1-f][1,2,4]triazin-7-yl)-5-cyano-3,4-dihydroxytetrahydrofuran-2-yl)methyl ((R)-2-((5-cyanopyridin-2-yl)amino)-3-(octadecyloxy)propyl) hydrogen phosphate]: the EC50 stood at 180 nM in series [1] and 4600 nM in the series with SARS-CoV-2. Moreover, the cytotoxic concentration (CC50) at 5 days in series [2] (MT4 CC50 (nM)) was determined as 550 nM.

Turning to `CCCCCCCCCCCCCCCCCCOC[C@H](COP(=O)(O)OC[C@H]1O[C@@](C#N)(c2ccc3c(N)ncnn23)[C@H](O)[C@@H]1O)OCc1cncc(S(C)(=O)=O)c1` [Example 43, ((2R,3S,4R,5R)-5-(4-aminopyrrolo[2,1-f][1,2,4]triazin-7-yl)-5-cyano-3,4-dihydroxytetrahydrofuran-2-yl)methyl ((R)-2-((5-(methylsulfonyl)pyridin-3-yl)methoxy)-3-(octadecyloxy)propyl) hydrogen phosphate], the EC50 in series [1] worked out at 59 nM; with SARS-CoV-2, 79 nM. Moreover, the half-maximal cytotoxic concentration (CC50) at 5 days in series [2] (MT4 CC50 (nM)) stood at 280 nM.

Take `CCCCCCCCCCCCCCCCCC(=O)NC[C@H](COP(=O)(O)OC[C@H]1O[C@@](C#N)(c2ccc3c(N)ncnn23)[C@H](O)[C@@H]1O)OCc1cc(F)cc(C#N)c1` [Example 45, ((2R,3S,4R,5R)-5-(4-aminopyrrolo[2,1-f][1,2,4]triazin-7-yl)-5-cyano-3,4-dihydroxytetrahydrofuran-2-yl)methyl ((R)-2-((3-cyano-5-fluorobenzyl)oxy)-3-stearamidopropyl) hydrogen phosphate]: the EC50 in series [1] turned out to be 82 nM; in the series on SARS-CoV-2, 140 nM. Besides, the CC50 at 5 days in series [2] (MT4 CC50 (nM)) came out at 950 nM.

In the case of `CCCCCCCCCCCCCCCCCCOC[C@H](COc1ccc(C#N)nn1)OP(=O)(O)OC[C@H]1O[C@@](C#N)(c2ccc3c(N)ncnn23)[C@H](O)[C@@H]1O` [Example 46, ((2R,3S,4R,5R)-5-(4-aminopyrrolo[2,1-f][1,2,4]triazin-7-yl)-5-cyano-3,4-dihydroxytetrahydrofuran-2-yl)methyl ((R)-1-((6-cyanopyridazin-3-yl)oxy)-3-(octadecyloxy)propan-2-yl) hydrogen phosphate], the EC50 is 26 nM in series [1] and 120 nM in the series with SARS-CoV-2. Further, the CC50 at 5 days in series [2] (MT4 CC50 (nM)) amounted to 420 nM.

With `CCCCCCCCCCCCCCCCCCNC(=O)[C@H](COP(=O)(O)OC[C@H]1O[C@@](C#N)(c2ccc3c(N)ncnn23)[C@H](O)[C@@H]1O)OCc1cc(F)cc(C#N)c1` [Example 47, ((2R,3S,4R,5R)-5-(4-aminopyrrolo[2,1-f][1,2,4]triazin-7-yl)-5-cyano-3,4-dihydroxytetrahydrofuran-2-yl)methyl ((S)-2-((3-cyano-5-fluorobenzyl)oxy)-3-(octadecylamino)-3-oxopropyl) hydrogen phosphate], the EC50 was 32 nM in series [1] and 120 nM in the series with SARS-CoV-2. The same compound showed a CC50 at 5 days in series [2] (MT4 CC50 (nM)) of 420 nM.

In the case of `CCCCCCCCCCCCCCCCCCOC[C@H](COP(=O)(O)OC[C@H]1O[C@@](C#N)(c2ccc3c(N)ncnn23)[C@H](O)[C@@H]1O)NC(=O)c1ccccc1C#N` [Example 58, ((2R,3S,4R,5R)-5-(4-aminopyrrolo[2,1-f][1,2,4]triazin-7-yl)-5-cyano-3,4-dihydroxytetrahydrofuran-2-yl)methyl ((R)-2-(2-cyanobenzamido)-3-(octadecyloxy)propyl) hydrogen phosphate], the values for the EC50 (in series [1]; with SARS-CoV-2) were 300 nM and 5100 nM, respectively. The compound further displayed a CC50 at 5 days in series [2] (MT4 CC50 (nM)) of 43000 nM.

Turning to `CCCCCCCCCCCCCCOCCOP(=O)(O)OC[C@H]1O[C@@](C#N)(c2ccc3c(N)ncnn23)[C@H](O)[C@@H]1O` [Example 59, [(2R,3S,4R,5R)-5-(4-Aminopyrrolo[2,1-f][1,2,4]triazin-7-yl)-5-cyano-3,4-dihydroxy-tetrahydrofuran-2-yl]methyl 2-tetradecoxyethyl hydrogen phosphate], the EC50 in series [1] was 170 nM; in the series with SARS-CoV-2, 10000 nM. The compound further had a CC50 at 5 days in series [2] (MT4 CC50 (nM)) of 16000 nM.

Regarding `CCCCCCCCCCCCCCCCCOCCOP(=O)(O)OC[C@H]1O[C@@](C#N)(c2ccc3c(N)ncnn23)[C@H](O)[C@@H]1O` [Example 60, [(2R,3S,4R,5R)-5-(4-aminopyrrolo[2,1-f][1,2,4]triazin-7-yl)-5-cyano-3,4-dihydroxy-tetrahydrofuran-2-yl]methyl 2-heptadecoxyethyl hydrogen phosphate], the values for the EC50 (in series [1]; in the series on SARS-CoV-2) were 240 nM and 2000 nM, respectively. For the same compound, half-maximal cytotoxicity in series [2] (MT4 CC50 (nM)) (CC50 at 5 days) was put at 4800 nM.

Consider `CCCCCCCCCCCCCCSCCCOP(=O)(O)OC[C@H]1O[C@@](C#N)(c2ccc3c(N)ncnn23)[C@H](O)[C@@H]1O` [Example 61, [(2R,3S,4R,5R)-5-(4-aminopyrrolo[2,1-f][1,2,4]triazin-7-yl)-5-cyano-3,4-dihydroxy-tetrahydrofuran-2-yl]methyl 3-tetradecylsulfanylpropyl hydrogen phosphate], for which the EC50 is 200 nM in series [1] and 6100 nM in the series on SARS-CoV-2. Moreover, it took 12000 nM to reach half-maximal cytotoxicity in series [2] (MT4 CC50 (nM)) (CC50 at 5 days).

As for `CCCCCCCCCCCCCCCCCSCCCOP(=O)(O)OC[C@H]1O[C@@](C#N)(c2ccc3c(N)ncnn23)[C@H](O)[C@@H]1O` [Example 62, [(2R,3S,4R,5R)-5-(4-Aminopyrrolo[2,1-f][1,2,4]triazin-7-yl)-5-cyano-3,4-dihydroxy-tetrahydrofuran-2-yl]methyl 3-heptadecylsulfanylpropyl hydrogen phosphate], the concentration giving a half-maximal response (EC50) was 230 nM in series [1] and 9800 nM in the series on SARS-CoV-2. For the same compound, in series [2] (MT4 CC50 (nM)), the CC50 at 5 days came to 24000 nM.

On to `CCCCCCCCCCCCCCCCCCOC[C@H](COP(=O)(O)OC[C@H]1O[C@@](C#N)(c2ccc3c(N)ncnn23)[C@H](O)[C@@H]1O)OCc1ccc(F)c(Cl)c1F` [Example 64, [(2R,3S,4R,5R)-5-(4-Aminopyrrolo[2,1-f][1,2,4]triazin-7-yl)-5-cyano-3,4-dihydroxy-tetrahydrofuran-2-yl]methyl [(2R)-2-[(3-chloro-2,4-difluoro-phenyl)methoxy]-3-octadecoxy-propyl] hydrogen phosphate], for which the figures for the EC50 (in series [1]; in the series with SARS-CoV-2) were 86 nM and 400 nM, respectively. The compound further registered a CC50 at 5 days in series [2] (MT4 CC50 (nM)) of 3100 nM.

`CCCCCCCCCCCCCCCCCCOC[C@H](CO[P@](O)(=S)OC[C@H]1O[C@@](C#N)(c2ccc3c(N)ncnn23)[C@H](O)[C@@H]1O)OCc1cc(F)cc(C#N)c1` [Example 68]: the EC50 was found to be 120 nM in series [1] and 360 nM with SARS-CoV-2. The CC50 at 5 days in series [2] (MT-4 cells, five days, CellTiter-Glo, read-out: MT4 CC50) worked out at 670 nM.

Turning to `CCCCCCCCCCCCCCCCCCC[C@H](COCc1ccc(C#N)cc1F)OP(=O)(O)OC[C@H]1O[C@@](C#N)(c2ccc3c(N)ncnn23)[C@H](O)[C@@H]1O` [Example 69, ((2R,3S,4R,5R)-5-(4-aminopyrrolo[2,1-f][1,2,4]triazin-7-yl)-5-cyano-3,4-dihydroxytetrahydrofuran-2-yl)methyl ((R)-1-((4-cyano-2-fluorobenzyl)oxy)henicosan-2-yl) hydrogen phosphate], the results for the half-maximal effective concentration (EC50) (in series [1]; in the series on SARS-CoV-2) were 400 nM and 10000 nM, respectively. For the same compound, in series [2] (MT4 CC50 (nM)), the CC50 at 5 days is 48000 nM.

On to `CCCCCCCCCCCCCCCCCCC[C@H](COP(=O)(O)OC[C@H]1O[C@@](C#N)(c2ccc3c(N)ncnn23)[C@H](O)[C@@H]1O)OCc1ccc(C#N)c(F)c1` [Example 71, ((2R,3S,4R,5R)-5-(4-aminopyrrolo[2,1-f][1,2,4]triazin-7-yl)-5-cyano-3,4-dihydroxytetrahydrofuran-2-yl)methyl ((R)-2-((4-cyano-3-fluorobenzyl)oxy)henicosyl) hydrogen phosphate], for which the results for the EC50 (in series [1]; in the series with SARS-CoV-2) were 68 nM and 79 nM, respectively. This compound came in with a CC50 at 5 days in series [2] (MT4 CC50 (nM)) of 900 nM.

For `CCCCCCCCCCCCCCCCCCC[C@H](COP(=O)(O)OC[C@H]1O[C@@](C#N)(c2ccc3c(N)ncnn23)[C@H](O)[C@@H]1O)OCc1ccccc1` [Example 72, ((2R,3S,4R,5R)-5-(4-aminopyrrolo[2,1-f][1,2,4]triazin-7-yl)-5-cyano-3,4-dihydroxytetrahydrofuran-2-yl)methyl ((R)-2-(benzyloxy)henicosyl) hydrogen phosphate], the EC50 was determined as 190 nM in series [1] and 1100 nM in the series with SARS-CoV-2. In series [2] (MT4 CC50 (nM)), this compound had a CC50 at 5 days of 3800 nM.

Turning to `CCCCCCCCCCCCCCC#CC[C@H](COP(=O)(O)OC[C@H]1O[C@@](C#N)(c2ccc3c(N)ncnn23)[C@H](O)[C@@H]1O)OCc1ccccc1` [Example 73, ((2R,3S,4R,5R)-5-(4-aminopyrrolo[2,1-f][1,2,4]triazin-7-yl)-5-cyano-3,4-dihydroxytetrahydrofuran-2-yl)methyl ((R)-2-(benzyloxy)nonadec-4-yn-1-yl) hydrogen phosphate], the figures for the EC50 (in series [1]; with SARS-CoV-2) were 58 nM and 430 nM, respectively. The CC50 at 5 days in series [2] (MT4 CC50 (nM)) is 3500 nM.

With `CCCCCCCCCCCCCCC#CC[C@H](COP(=O)(O)OC[C@H]1O[C@@](C#N)(c2ccc3c(N)ncnn23)[C@H](O)[C@@H]1O)OCc1cc(F)cc(C#N)c1` [Example 74, ((2R,3S,4R,5R)-5-(4-aminopyrrolo[2,1-f][1,2,4]triazin-7-yl)-5-cyano-3,4-dihydroxytetrahydrofuran-2-yl)methyl ((R)-2-((3-cyano-5-fluorobenzyl)oxy)nonadec-4-yn-1-yl) hydrogen phosphate], the EC50 turned out to be 24 nM in series [1] and 190 nM in the series with SARS-CoV-2. In addition, in series [2] (MT4 CC50 (nM)), the 50% cytotoxic concentration (CC50) at 5 days is 300 nM.

Broadly, the EC50 is the concentration at which the effect is half-maximal. The CC50 is the concentration giving 50% cytotoxicity.
